Test results taken from patent US20240043390A1, “COMPOSITIONS AND METHODS FOR TREATING CANCER” (The Regents of the University of California, priority 2017, published 2024).
Where two headings read alike, the source gives them in different places. One block for each compound: values may come before it.

Assays:
[1] = system: patient-derived GBM gliomaspheres; experiment: Annexin V apoptosis assay; format: cell-based, human; conditions: for lethality in combination with nutlin: EGFRi non-responder cells (HK393, HK254)
Protocol: (§1) Cells were collected and analyzed for Annexin V and PI staining according to manufacturer's protocol (BD Biosciences). Briefly, cells were plated at 5×10^4 cells/ml and treated with appropriate drugs. Following indicated time points, cells were collected, trypsinized, washed with PBS, and stained with Annexin V and PI for 15 minutes. Samples were then analyzed using the BD LSRII flow cytometer.
(§2) Annexin V staining was measured following 72 hrs of treatment. Using the Chalice software, the response of the combination was compared to its single agents. The combinatorial effects were calculated using the synergy score.

[2] = system: HK301 cells; experiment: Annexin V apoptosis assay; format: cell-based, human; conditions: HK301 gliomaspheres, 72 hours, nutlin 2.5 μM
Protocol: as §1, §2

[3] = Kpuu; format: in vivo; conditions: average; for Kp uu: brain/blood
Source text: (§3) Fu refers to “fraction unbound”.

[4] = Protein binding (fraction unbound) in blood and brain; format: in vitro ADME
Source text: as §3

[5] = system: gliomas; conditions: cited from earlier work
[6] = system: GBM39 intracranial xenografts; experiment: 18F-FDG PET/CT imaging of intracranial xenografts; format: in vivo, NSG mice; conditions: erlotinib 75 mg/kg, 15 hours post administration
Protocol: (§4) Drugs were administered through oral gavage.
(§5) Following 1 hr unconscious uptake, mice were taken off anesthesia but kept warm for another 5 hr of uptake. 6 hr after the initial administration of ^18F-FDG, mice were imaged using G8 PET/CT scanner (Sofie Biosciences). Per above, quantification was performed by drawing 3D regions of interest (ROI) using the AMIDE software.

[7] = system: HK393 intracranial xenografts; experiment: 18F-FDG PET/CT imaging of intracranial xenografts; format: in vivo, NSG mice; conditions: acute EGFRi (erlotinib 75 mg/kg)
Protocol: as §4, §5

[8] = Pharmacokinetic studies, plasma and brain; format: in vivo, male CD-1 mice; conditions: oral; JGK005 10 mg/kg, erlotinib 25 mg/kg; FIG. 1
Protocol: Pharmacokinetic studies were performed on male CD-1 mice aged 8-10 weeks. Mice were dosed as indicated in duplicates. At the time points, whole blood was obtained by retro-orbital bleeding and brain tissue was harvested. Blood samples were centrifuged to obtain plasma and brain tissue was washed and homogenized. Samples were extracted with acetonitrile and supernatant was dried using a speed-vac. Dried samples were solubilized in 50:50:0.1 acetonitrile:water:formic acid and quantified on an Agilent 6400 series Triple Quadrupole LC/MS.

[9] = system: HK301; experiment: GI50 assay, Cell Titer Glo, 3 days; format: cell-based, human; conditions: HK301, FIG. 2
Protocol: The GI50 Assays were performed using patient-derived glioblastoma cells. […] Cells were incubated for 3 days and then proliferation was assessed by Cell Titer Glo (Promega #G7570).

[10] = system: GBM39; experiment: GI50 assay, Cell Titer Glo, 3 days; format: cell-based, human; conditions: GBM39, FIG. 2
[11] = system: HK393 and HK254 cells; experiment: 18F-FDG uptake assay in cells; format: cell-based, human; conditions: 4 hours, pictilisib 1 μM
Protocol: Cells were plated at 5×10^4 cells/ml and treated with designated drugs for indicated time points. Following appropriate treatment, cells were collected and resuspended in glucose-free DMEM/F12 (USBiological) containing ^18F-FDG (radioactivity 1 μCi/mL). Cells were incubated at 37° C. for 1 hr and then washed three times with ice cold PBS. Radioactivity of each sample was then measured using a gamma counter.

SMILES: O=CC[C@@H](O)[C@H](O)[C@H](O)CO [2DG, 2-deoxyglucose]
- lethality in combination with nutlin [1]: synergistic lethality
- synergy with nutlin [2]: synergy with nutlin

- Kpuu (Avg) [3]: 1.30
- Bound (blood) [4]: 94.07%
- Bound (brain) [4]: 97.23%
- fraction unbound [4]: 0.0277
- fraction unbound ([4]; blood): 0.0593
SMILES: COc1cc2ncnc(Nc3cccc(Cl)c3F)c2cc1OC(=O)N1CCN(C)C[C@H]1C [AZD3759]

- Kp uu [3]: 0.0513
SMILES: C#Cc1cccc(Nc2ncnc3cc(OCCOC)c(OCCOC)cc23)c1 [Erlotinib]
- apoptosis (annexin V staining) ([1]; non-responders, 72 hours of erlotinib exposure, 1 μM): −3%
- response rates [5]: ≤ 25%
- 18F-FDG uptake (PET) [6]: rapidly reduced ^18F-FDG uptake
- 18F-FDG uptake (PET) [7]: no changes in ^18F-FDG uptake

SMILES: C#Cc1cccc(Nc2ncnc3cc4c(cc23)OCCO4)c1 [JGK005]
- CNS penetration [8]: good CNS penetration compared to erlotinib
- activity against EGFR mutant glioblastoma [9]: lower activity than erlotinib
- activity against EGFR mutant glioblastoma [10]: lower activity than erlotinib

- Kp uu [3]: 1.15
- Bound (blood) ([4]; blood (first line of each compound)): 99.48%
- fraction unbound ([4]; blood (first line of each compound), read-out: Fu (blood)): 0.0052
- Bound (brain) ([4]; brain (second line of each compound)): 99.44%
- fraction unbound ([4]; brain (second line of each compound), read-out: Fu (brain)): 0.0056
SMILES: Fc1c(Cl)cccc1Nc1ncnc2cc3c(cc12)OCCO3 [JGK010]

- Kpuu (Avg) [3]: 1.2994
SMILES: Fc1c(Br)cccc1Nc1ncnc2cc3c(cc12)OCCO3 [JGK037, N-(3-Bromo-2-fluorophenyl)-7,8-dihydro[1,4]dioxino[2,3-g]quinazolin-4-amine]

SMILES: CC[C@H]1/C=C/C=C/C[C@@H](C)[C@H](O)[C@@](C)(O)C(=O)[C@@H](C)[C@H](O)[C@@H](C)C(=O)[C@@H](C)[C@H](O)[C@@H](C)/C=C/C(=O)O[C@@H]2[C@H](C)[C@H](CC1)O[C@]1(CC[C@H](C)[C@H](C[C@@H](C)O)O1)[C@H]2C [oligomycin]
- synergy with nutlin [2]: did not synergize with nutlin treatment

SMILES: CS(=O)(=O)N1CCN(Cc2cc3nc(-c4cccc5[nH]ncc45)nc(N4CCOCC4)c3s2)CC1 [pictilisib]
- lethality in combination with nutlin [1]: synergistic lethality
- 18F-FDG uptake [11]: significantly reduced ^18F-FDG uptake

SMILES: C=C(C)[C@H]1Cc2c(ccc3c2O[C@@H]2COc4cc(OC)c(OC)cc4[C@@H]2C3=O)O1 [rotenone]
- synergy with nutlin [2]: did not synergize with nutlin treatment
